Test results reported in paper PMC8322070, “A novel orally active HDAC6 inhibitor T-518 shows a therapeutic potential for Alzheimer’s disease and tauopathy in mice” (Scientific Reports, 2021).

Key:
[1] = tested on: class IIa HDACs; assay: HDAC selectivity panel (Reaction Biology Corporation), class IIa; format: biochemical; conditions: heat map Fig. 2A
Experimental: (§1) Recombinant HDAC6, HDAC7, HDAC1 were obtained from SignalChem Pharmaceutical Inc. (Richmond, BC, Canada), and recombinant human HDAC4 was prepared at Takeda pharmaceutical company. One μL of T-518 diluted with DMSO was added to 75 μL of assay buffer (24 mM Tris–HCl (pH 7.5), 135 mM NaCl, 0.35 mM KCl, 1 mM MgCl2, 0.01% Tween 20, 0.6 mM GSH) in 384 well plates. Two μL of diluted compounds were added to 384 well plates and 2 μL of recombinant HDAC enzymes was added and then centrifuged at 1000 rpm for 10 s. The final concentrations of each HDAC enzyme were as follows, human HDAC1, 170 pM; human HDAC6, […]; human HDAC4, 68 pM; human HDAC7, 13 pM. After incubation for 60 min at room temperature, 4 μL of HDAC-Glo reagent [HDAC-Glo I/II (Promega) for HDAC6 and HDAC1, HDAC-Glo class IIa (Promega) for HDAC4 and HDAC7] was added to start the reaction. After incubation for 20 min at room temperature, the luminescence was measured by Envision plate reader (PerkinElmer, Waltham, MA, USA). For experiments under the condition of 0 min preincubation, 4 μL of HDAC-Glo reagent was added at first to the 384 well plates including diluted compounds. After centrifugation at 1000 rpm for 10 s, 2 μL of HDAC enzyme solution was added. After centrifugation at 1000 rpm for 10 s. and then incubation for 20 min at room temperature, the luminescence was measured by Envision. For determination of inhibitory activity of T-518, the vehicle signal was set as 0% and the signal in the absence of HDAC enzyme was set as 100% inhibition. The inhibitory activity of T-518 was expressed as the value of IC50. The IC50 value and 95% confidence intervals were calculated by XLfit (IDBS, Surrey, UK). The HDAC selectivity panel was conducted by Reaction Biology Corporation (Malvern, PA, USA).

[2] = tested on: Histone H3 acetylation in mouse primary neural cultures; assay: Histone H3 acetylation in mouse primary neural culture (Western blotting); format: cell-based; conditions: DIV6 mouse primary neural culture, 3 and 30 μM, 24 h
Experimental: (§2) T-518, ACY-738, Ricolinostat, and Tubastatin A were synthesized in Takeda. For in vitro cellular experiments, the compounds were solubilized with DMSO and diluted in the culture medium at the indicated concentrations. For in vivo experiments, the compound was reconstituted in 0.5% methylcellulose and administered orally at the indicated doses. After administration, mouse hippocampus was isolated and homogenized in RIPA extraction buffer (50 mM Tris–HCl, 150 mM NaCl, 1% NP-40, 0.5% sodium deoxycholate, and 0.1% SDS, pH 8.0) supplemented with protease and phosphatase inhibitor cocktail (Thermo Fischer, Waltham, MA, USA). The homogenate was centrifuged at 10,000g for 15 min and the supernatant was taken as the RIPA-soluble fraction.
(§3) Primary cortical neurons were prepared from E14 C57BL/6J mouse embryos (CLIEA Japan, Inc., Tokyo, Japan) using papain-containing Neuron Dissociation Solutions (Fujifilm Wako, Tokyo, Japan). Isolated cells were suspended in Neurobasal Medium containing B-27 (Thermo Fisher) and seeded on poly-D-lysine-coated plates (Corning, NY, USA) under 5% CO2 at 37 °C for 6 days in vitro (DIV) prior to evaluation of HDAC6 inhibitors. Cells were treated with HDAC6 inhibitors at the indicated concentrations for 24 h and lysed in RIPA extraction buffer (50 mM Tris–HCl, 150 mM NaCl, 1% NP-40, 0.5% sodium deoxycholate, and 0.1% SDS, pH 8.0) supplemented with protease and phosphatase inhibitor cocktail (Thermo Fisher).
Cell lysate or in vivo protein samples were separated by 10% SDS-PAGE, then electrophoretically transferred to 0.45 μm poly-vinylidene difluoride membranes (Millipore). Membranes were blocked for 1 h in Blocking Reagent (TOYOBO, Osaka, Japan), probed with primary antibodies followed by labeling with HRP-coupled secondary antibodies (Amersham, Piscataway, NJ), and then visualized using chemiluminescence reagent (ECL; Amersham). Images were captured using ImageQuant LAS 4000 (GE healthcare Bio-Sciences, Marlborough, MA, USA). Quantitative densitometric analyses were conducted using ImageQuant TL (GE healthcare Bio-Sciences). The protocol was slightly modified for detection of HDAC6 in cortex. Briefly, cerebral cortex was homogenized in RIPA buffer supplemented with 1 μM microstatin, 1 μM MG115, 40 μM Leupeptin, 100 μM ABSF, and 2 mM sodium orthovanadate, separated by 7.5–15% gradient SDS-PAGE and electrophoretically transferred to 0.45 μm poly-vinylidene difluoride membranes (Millipore). Membranes were blocked for 1 h with ECL Prime Blocking Reagent (Amersham, Piscataway, NJ) prior to immunoblotting, visualization, and densitometry as described above.

[3] = tested on: tubulin acetylation in mouse primary neural cultures; assay: Tubulin acetylation in mouse primary neural culture (ELISA); format: cell-based; conditions: DIV6 mouse primary neural culture, 0.1–10 μM, 24 h, ELISA
Experimental: as §2, §3
Acetylated α-tubulin and total tubulin levels were measured by sandwich ELISA. Ninety six-well plates (Microlite2+, Thermo) were coated with α-tubulin capture antibody (1:100) by overnight incubation at 4 °C, washed 4 times with PBS'T, treated with blocking buffer (1% bovine serum albumin in PBS'T) at 37 °C for 2 h, and washed another 4 times with PBS’T. Cell or tissues lysate was added to the wells and plates were incubated at 37 °C for 2 h. Plates were then washed 4 times with PBST, incubated with a detection antibody for acetylated tubulin or total α-tubulin diluted in blocking buffer at 37℃ for 1 h, rewashed 4 more times with PBST, incubated with a mouse secondary antibody conjugated to horseradish peroxidase (HRP) for 30 min, wash 4 times again with PBST, and then incubated with chemiluminescent substrate (SuperSignal).

[4] = tested on: class I HDACs; assay: HDAC selectivity panel (Reaction Biology Corporation), class I; format: biochemical; conditions: heat map Fig. 2A
Experimental: as §1, with “After centrifugation at 1000 rpm for 10 s, 2 μL of HDAC enzyme solution was added.” left out, “For determination of inhibitory activity of T-518, the vehicle signal was set as 0% and the signal in the absence of HDAC enzyme was set as 100% inhibition.” left out, “The IC50 value and 95% confidence intervals were calculated by XLfit (IDBS, Surrey, UK). The HDAC selectivity panel was conducted by Reaction Biology Corporation (Malvern, PA, USA).” left out

Compound	inhibition of class IIa HDACs in HDAC panel [1]	effect on Histone H3 acetylation [2]	effect on tubulin acetylation [3]	inhibition of class I HDACs in HDAC panel [4]
CN1CCc2c(c3ccccc3n2Cc2ccc(C(=O)NO)cc2)C1 [Tubastatin A]	inhibits	neither T-518 nor Tubastatin A at 3 and 30 μM demonstrates this activity	significantly and concentration-dependently elevates tubulin acetylation	
O=C(NO)c1cnc(NC2(c3ccccc3)CC2)nc1 [ACY-738]	slightly inhibit	increase the acetylation of histone H3	significantly and concentration-dependently elevates tubulin acetylation	slightly inhibit
O=C(CCCCCCNC(=O)c1cnc(N(c2ccccc2)c2ccccc2)nc1)NO [Ricolinostat]	slightly inhibit	increase the acetylation of histone H3	significantly and concentration-dependently elevates tubulin acetylation	slightly inhibit
